Results taken from patent publication US20090298781A1, “COMPOUNDS FOR THE INHIBITION OF APOPTOSIS” (CONSEJO SUPERIOR DE, priority 2005, published 2009).

Experiments:
Type in all cases: cell-based
[1] = system: Caspase activity, U937 cell extracts; assay: Caspase inhibition assay, U937 cell extracts; conditions: Homo sapiens, U-937, 5 μM
Protocol: The time-dependent inhibition of caspase induced by the compounds described in this invention was analysed. […] Caspase activity was assayed using Saos-2 or U937 cell extracts and Ac-DEVD-afc (N-acetyl-Asp-Glu-Val-Asp-afc(7-amino-4-trifluoromethyl coumarin)) as substrate (20 μM). Caspase activity was continuously monitored by the liberation of fluorescent afc using a Cytofluor 4000 fluorimeter (excitation 400 nm; emission 508 nm) for 1 hour. The effect of the compounds on the caspase activity was expressed as the percentage of inhibition in the fluorescence signal of treated cells vs. the non-treated cells (control).

[2] = system: Saos-2 cell line; assay: MTT assay, toxicity (cell viability), Saos-2
Protocol: (§1) The MTT assay measures cell proliferation as well as reduction in cell viability when metabolic events lead to apoptosis or necrosis. It can also be used to assess the rate of survival of a given cell line when it is incubated in the presence of xenobiotics. The reduction of tetrazolium salts is accepted as a reliable way to analyse cell proliferation. The yellow tetrazolium MTT (3-(4,5-dimethylthiazolyl-2)-2,5-diphenyltetrazolium bromide) is reduced by metabolically active cells and results in the intracellular formation of purple formazan that can be spectrophotometrically measured after solubilisation with DMSO.
(§2) The MTT assay was used in this invention to assess the toxicity of compounds at different concentrations. To analyse their potential impairment in cell viability, compounds were added to Saos-2 and U937 cell lines at different concentrations and incubated at different times. Results are expressed by percentage cell viability.

[3] = system: Caspase activity, U2-OS; assay: Caspase inhibition assay, U2-OS; conditions: Homo sapiens, U2OS, 5 μM
[4] = system: U937 cell line; assay: MTT assay, toxicity (cell viability), U937
Protocol: as §1, §2

[5] = system: Caspase activity, HeLa; assay: Caspase inhibition assay, HeLa; conditions: Homo sapiens, 5 μM

NC(=O)CN(C(=O)C1CC(=O)N(CCc2ccc(Cl)cc2Cl)CC(=O)N1CCC(c1ccccc1)c1ccccc1)C1CC1 (centres unmarked) [I.2, 1-[2-(2,4-Dichlorophenyl)ethyl]-4-(3,3-diphenylpropyl)-3,7-dioxo[1,4]diazepane-5-carboxylic acid carbamoylmethylcyclopropylamide]
inhibition at 5 µM ([1]; U937, 24 h): 0%
inhibition at 5 µM ([1]; U937, 48 h): 3%
inhibition at 5 µM ([1]; U937, 72 h): 0%
% Cell viability ([2]; Saos-2, 24 h, 1 μM): 100%
% Cell viability ([2]; Saos-2, 24 h, 5 μM): 99%
% Cell viability ([2]; Saos-2, 24 h, 10 μM): 99%
% Cell viability ([2]; Saos-2, 48 h, 1 μM): 100%
% Cell viability ([2]; Saos-2, 48 h, 5 μM): 100%
% Cell viability ([2]; Saos-2, 48 h, 10 μM): 91%
inhibition at 5 µM ([3]; 24 h): 0%
inhibition at 5 µM ([3]; 48 h): 54%
inhibition at 5 µM ([3]; 72 h): 27%
% Cell viability ([4]; U937, 24 h, 1 μM): 100%
% Cell viability ([4]; U937, 24 h, 5 μM): 100%
% Cell viability ([4]; U937, 24 h, 10 μM): 97%
% Cell viability ([4]; U937, 48 h, 1 μM): 100%
% Cell viability ([4]; U937, 48 h, 5 μM): 99%
% Cell viability ([4]; U937, 48 h, 10 μM): 83%
inhibition at 5 µM ([5]; 24 h): 1%
inhibition at 5 µM ([5]; 48 h): 46%
inhibition at 5 µM ([5]; 72 h): 59%

NCCCCC(NC(=O)CN(CCc1ccc(Cl)cc1Cl)C(=O)C1CC(=O)N(CCc2ccc(Cl)cc2Cl)CC(=O)N1CCC(c1ccccc1)c1ccccc1)C(N)=O (centres unmarked) [IIa.2, 1-[2-(2,4-Dichlorophenyl)ethyl]-4-(3,3-diphenyl-propyl)-3,7-dioxo[1,4]diazepane-5-carboxylic acid [(5-amino-1-carbamoylpentylcarbamoyl)methyl]-[2-(2,4-dichlorophenyl)ethyl]amide]
inhibition at 5 µM ([1]; U937, 24 h): 23%
inhibition at 5 µM ([1]; U937, 48 h): 11%
inhibition at 5 µM ([1]; U937, 72 h): 5%
% Cell viability ([2]; Saos-2, 24 h, 1 μM): 98%
% Cell viability ([2]; Saos-2, 24 h, 5 μM): 100%
% Cell viability ([2]; Saos-2, 24 h, 10 μM): 77%
% Cell viability ([2]; Saos-2, 24 h, 25 μM): 25%
% Cell viability ([2]; Saos-2, 24 h, 50 μM): 10%
% Cell viability ([2]; Saos-2, 48 h, 1 μM): 100%
% Cell viability ([2]; Saos-2, 48 h, 5 μM): 97%
% Cell viability ([2]; Saos-2, 48 h, 10 μM): 98%
% Cell viability ([2]; Saos-2, 48 h, 25 μM): 11%

NC(=O)CN(CCc1ccc(Cl)cc1)C(=O)C1CC(=O)N(CCc2ccc(Cl)cc2Cl)CC(=O)N1CCC(c1ccccc1)c1ccccc1 (centres unmarked) [I.8, 1-[2-(2,4-Dichlorophenyl)ethyl]-4-(3,3-diphenylpropyl)-3,7-dioxo[1,4]diazepane-5-carboxylic acid carbamoylmethyl[2-(4-chlorophenyl)ethyl]amide]
inhibition at 5 µM ([1]; U937, 24 h): 5%
inhibition at 5 µM ([1]; U937, 48 h): 15%
inhibition at 5 µM ([1]; U937, 72 h): 23%
% Cell viability ([2]; Saos-2, 24 h, 1 μM): 100%
% Cell viability ([2]; Saos-2, 24 h, 5 μM): 100%
% Cell viability ([2]; Saos-2, 24 h, 10 μM): 99%
% Cell viability ([2]; Saos-2, 48 h, 1 μM): 97%
% Cell viability ([2]; Saos-2, 48 h, 5 μM): 100%
% Cell viability ([2]; Saos-2, 48 h, 10 μM): 100%
inhibition at 5 µM ([3]; 24 h): 0%
inhibition at 5 µM ([3]; 48 h): 16%
inhibition at 5 µM ([3]; 72 h): 24%
% Cell viability ([4]; U937, 24 h, 1 μM): 100%
% Cell viability ([4]; U937, 24 h, 5 μM): 98%
% Cell viability ([4]; U937, 24 h, 10 μM): 99%
% Cell viability ([4]; U937, 48 h, 1 μM): 100%
% Cell viability ([4]; U937, 48 h, 5 μM): 98%
% Cell viability ([4]; U937, 48 h, 10 μM): 99%
inhibition at 5 µM ([5]; 24 h): 5%
inhibition at 5 µM ([5]; 48 h): 3%
inhibition at 5 µM ([5]; 72 h): 6%

NC(=O)CN(CCc1ccccc1F)C(=O)C1CC(=O)N(CCc2ccc(Cl)cc2Cl)CC(=O)N1CCC(c1ccccc1)c1ccccc1 (centres unmarked) [I.9, 1-[2-(2,4-Dichlorophenyl)ethyl]-4-(3,3-diphenylpropyl)-3,7-dioxo[1,4]diazepane-5-carboxylic acid carbamoylmethyl[2-(2-fluorophenyl)-ethyl]amide]
inhibition at 5 µM ([1]; U937, 24 h): 3%
inhibition at 5 µM ([1]; U937, 48 h): 4%
inhibition at 5 µM ([1]; U937, 72 h): 63%
% Cell viability ([2]; Saos-2, 24 h, 1 μM): 100%
% Cell viability ([2]; Saos-2, 24 h, 5 μM): 96%
% Cell viability ([2]; Saos-2, 24 h, 10 μM): 82%
% Cell viability ([2]; Saos-2, 48 h, 1 μM): 97%
% Cell viability ([2]; Saos-2, 48 h, 5 μM): 76%
% Cell viability ([2]; Saos-2, 48 h, 10 μM): 66%
inhibition at 5 µM ([3]; 24 h): 0%
inhibition at 5 µM ([3]; 48 h): 34%
inhibition at 5 µM ([3]; 72 h): 61%
% Cell viability ([4]; U937, 24 h, 1 μM): 100%
% Cell viability ([4]; U937, 24 h, 5 μM): 98%
% Cell viability ([4]; U937, 24 h, 10 μM): 88%
% Cell viability ([4]; U937, 48 h, 1 μM): 93%
% Cell viability ([4]; U937, 48 h, 5 μM): 69%
% Cell viability ([4]; U937, 48 h, 10 μM): 59%
inhibition at 5 µM ([5]; 24 h): 0%
inhibition at 5 µM ([5]; 48 h): 0%
inhibition at 5 µM ([5]; 72 h): 41%

NC(=O)CN(CCc1ccc(F)cc1)C(=O)C1CC(=O)N(CCc2ccc(Cl)cc2Cl)CC(=O)N1CCC(c1ccccc1)c1ccccc1 (centres unmarked) [I.10, 1-[2-(2,4-Dichlorophenyl)ethyl]-4-(3,3-diphenylpropyl)-3,7-dioxo[1,4]diazepane-5-carboxylic acid carbamoylmethyl[2-(4-fluorophenyl)ethyl]amide]
inhibition at 5 µM ([1]; U937, 24 h): 0%
inhibition at 5 µM ([1]; U937, 48 h): 5%
inhibition at 5 µM ([1]; U937, 72 h): 2%
% Cell viability ([2]; Saos-2, 24 h, 1 μM): 76%
% Cell viability ([2]; Saos-2, 24 h, 5 μM): 100%
% Cell viability ([2]; Saos-2, 24 h, 10 μM): 91%
% Cell viability ([2]; Saos-2, 48 h, 1 μM): 100%
% Cell viability ([2]; Saos-2, 48 h, 5 μM): 100%
% Cell viability ([2]; Saos-2, 48 h, 10 μM): 100%
inhibition at 5 µM ([3]; 24 h): 0%
inhibition at 5 µM ([3]; 48 h): 22%
inhibition at 5 µM ([3]; 72 h): 64%
% Cell viability ([4]; U937, 24 h, 1 μM): 96%
% Cell viability ([4]; U937, 24 h, 5 μM): 99%
% Cell viability ([4]; U937, 24 h, 10 μM): 89%
% Cell viability ([4]; U937, 48 h, 1 μM): 100%
% Cell viability ([4]; U937, 48 h, 5 μM): 98%
% Cell viability ([4]; U937, 48 h, 10 μM): 99%
inhibition at 5 µM ([5]; 24 h): 1%
inhibition at 5 µM ([5]; 48 h): 6%

CCCCN(CC(N)=O)C(=O)C1CC(=O)N(CCc2ccc(Cl)cc2Cl)CC(=O)N1CCC(c1ccccc1)c1ccccc1 (centres unmarked) [I.11, 1-[2-(2,4-Dichloro-phenyl)ethyl]-4-(3,3-diphenylpropyl)-3,7-dioxo[1,4]diazepane-5-carboxylic acid butyl-carbamoylmethylamide]
inhibition at 5 µM ([1]; U937, 24 h): 11%
inhibition at 5 µM ([1]; U937, 48 h): 0%
inhibition at 5 µM ([1]; U937, 72 h): 4%
% Cell viability ([2]; Saos-2, 24 h, 1 μM): 100%
% Cell viability ([2]; Saos-2, 24 h, 5 μM): 98%
% Cell viability ([2]; Saos-2, 24 h, 10 μM): 82%
% Cell viability ([2]; Saos-2, 48 h, 1 μM): 100%
% Cell viability ([2]; Saos-2, 48 h, 5 μM): 91%
% Cell viability ([2]; Saos-2, 48 h, 10 μM): 74%
inhibition at 5 µM ([3]; 24 h): 0%
inhibition at 5 µM ([3]; 48 h): 31%
inhibition at 5 µM ([3]; 72 h): 50%
% Cell viability ([4]; U937, 24 h, 1 μM): 100%
% Cell viability ([4]; U937, 24 h, 5 μM): 95%
% Cell viability ([4]; U937, 24 h, 10 μM): 79%
% Cell viability ([4]; U937, 48 h, 1 μM): 98%
% Cell viability ([4]; U937, 48 h, 5 μM): 89%
% Cell viability ([4]; U937, 48 h, 10 μM): 75%
inhibition at 5 µM ([5]; 24 h): 14%
inhibition at 5 µM ([5]; 48 h): 0%
inhibition at 5 µM ([5]; 72 h): 62%
